Laboratory results reported in publication PMC5737775 (Journal of Alzheimer's disease : JAD, 2017).

Experiments:
[1] = target: rAβ42 (Aβ1-42) aggregation (Homo sapiens, UniProt P05067); assay: Thioflavin T assay of Aβ42 aggregation; type: biochemical; settings: for anti-aggregation activity, result in words: Aβ1-42, 48 h, thioflavin T, 1, 3, 10, 30 μM
[2] = tested on: peritoneal macrophages; assay: MTT cytotoxicity assay on peritoneal macrophages; type: cell-based, C57Bl/6 mice; settings: for cell viability (MTT): at the concentrations tested (1, 3, 10, 30 μM)
[3] = tested on: IL-6 production by peritoneal macrophages stimulated with LPS; assay: IL-6 secretion by LPS-stimulated murine peritoneal macrophages; type: cell-based, C57Bl/6 mice; settings: for inhibition of IL-6 at 30 μM: 30 μM compound, LPS 10 ng/mL; for anti-inflammatory activity (IL-6 secretion), result in words: LPS-stimulated macrophages, 1, 3, 10, 30 μM

Chain of rAβ42 (Aβ1-42) aggregation (P05067 672-713 limits assumed): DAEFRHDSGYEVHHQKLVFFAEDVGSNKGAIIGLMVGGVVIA

IC50 [1] [nM] | SMILES | anti-aggregation activity, result in words [1] | cytotoxicity (MTT) at 30 μM ([2]; 30 μM) | inhibition of IL-6 at 30 μM [3] | anti-inflammatory activity (IL-6 secretion), result in words [3] | cell viability (MTT) [2]
– | C#CCOc1ccc(/C=C/C(=O)CC(=O)/C=C/c2ccc(OCC#C)c(OC)c2)cc1OC [Compound 2, (1E,6E)-1,7-bis(3-methoxy-4-(prop-2-yn-1-yloxy)phenyl)hepta-1,6-diene-3,5-dione] | did not present anti-aggregation activity | – | – | – | –
– | COc1cc(/C=C/C(O)=C/C(=O)/C=C/c2ccc(OCc3ccccc3)c(OC)c2)ccc1O [Compound 3, (1E, 4Z, 6E)-1-(4-(benzyloxy)-3-methoxyphenyl)-5-hydroxy-7-(4-hydroxy-3-metho-xyphenyl)hepta-1,4,6-trien-3-one] | inhibited the aggregation of Aβ in a concentration-dependent manner | – | – | – | –
1320 ± 700 | COc1cc(/C=C/C(O)=C/C(=O)/C=C/c2ccc(OC(C)=O)c(OC)c2)ccc1O [Compound 4, 4-((1E,4Z,6E)-5-hydroxy-7-(4-hydroxy-3-methoxyphenyl)-3-oxohepta-1,4,6-trien-1-yl)-2-methoxyphenyl acetate] | inhibited the aggregation of Aβ in a concentration-dependent manner | – | – | – | –
– | C=CCOC(=O)CCC(=O)Oc1ccc(/C=C/C(=O)/C=C(O)/C=C/c2ccc(OC(=O)CCC(=O)OCC=C)c(OC)c2)cc1OC [Compound 5, diallyl O,O′-(((1E,3Z,6E)-3-hydroxy-5-oxohepta-1,3,6-triene-1,7-diyl)bis(2-methoxy-4,1-phenylene)) disuccinate] | inhibited the aggregation of Aβ in a concentration-dependent manner | exhibited cytotoxicity | complete inhibition | mid-to-strong inhibition | –
1770 ± 900 | C=CCOC(=O)CCC(=O)Oc1ccc(/C=C/C(=O)/C=C(O)/C=C/c2ccc(O)c(OC)c2)cc1OC [Compound 6, allyl (4-((1E,4Z,6E)-5-hydroxy-7-(4-hydroxy-3-methoxyphenyl)-3-oxohepta-1,4,6-trien-1-yl)-2-methoxyphenyl) succinate] | inhibited the aggregation of Aβ in a concentration-dependent manner | – | complete inhibition | mid-to-strong inhibition | did not affect the cell viability
– | COc1cc(/C=C/C(=O)/C=C(O)/C=C/c2ccc(OC(=O)CCC(=O)OCc3ccccc3)c(OC)c2)ccc1OC(=O)CCC(=O)OCc1ccccc1 [Compound 7, dibenzyl O,O′-(((1E,3Z,6E)-3-hydroxy-5-oxohepta-1,3,6triene-1,7-diyl)bis(2-methoxy-4,1-phenylene)) disuccinate] | – | – | – | did not show any anti-inflammatory activity | –
– | COc1cc(/C=C/C(O)=C/C(=O)/C=C/c2ccc(OC(=O)CCC(=O)OCc3ccccc3)c(OC)c2)ccc1O [Compound 8, benzyl (4-((1E,4Z,6E)-5-hydroxy-7-(4-hydroxy-3-methoxyphenyl)-3-oxohepta-1,4,6-trien-1-yl)-2-methoxyphenyl) succinate] | did not present anti-aggregation activity | – | complete inhibition | mid-to-strong inhibition | did not affect the cell viability
– | COc1cc(C=CC(=O)C=C(O)C=Cc2ccc(OC(=O)CCC(=O)OC3CCCC3)c(OC)c2)ccc1OC(=O)CCC(=O)OC1CCCC1 [Compound 9, dicyclopentyl O,O′-(((1E,3Z,6E)-3-hydroxy-5-oxohepta-1,3,6-triene-1,7-diyl)bis(2-methoxy-4,1-phenylene)) disuccinate] | did not present anti-aggregation activity | – | – | did not show any anti-inflammatory activity | –
2040 ± 700 | COc1cc(/C=C/C(O)=C/C(=O)/C=C/c2ccc(OC(=O)CCC(=O)OC3CCCC3)c(OC)c2)ccc1O [Compound 10, cyclopentyl (4-((1E,4Z,6E)-5-hydroxy-7-(4-hydroxy-3-methoxyphenyl)-3-oxohepta-1,4,6-trien-1-yl)-2-methoxyphenyl) succinate] | inhibited the aggregation of Aβ in a concentration-dependent manner | – | complete inhibition | mid-to-strong inhibition | did not affect the cell viability
